Patent publication US12729377B2, “RNAi agents and compositions for inhibiting expression of angiopoietin-like 3 (ANGPTL3), and methods of use” (Arrowhead Pharmaceuticals, Inc., priority 2017, dated 2026)
In the oligonucleotide strings, read from the 5' end, every base follows the letter of its sugar. An asterisk marks phosphorothioate; unmarked linkages are phosphodiester. Other units and linkages are bracketed, terminal groups are in braces. A string of capitals states the bases alone. {NAG37} = tridentate N-acetyl-galactosamine targeting ligand, structure (NAG37)s; [invAb] = inverted abasic unit; m = 2'-O-methyl; f = 2'-fluoro

Assays:
[1] = tested on: ANGPTL3 gene; experiment: Example 11: dose response, serum HDL in mice; assay type: in vivo, C57bl/6 mice
Procedure: (§1) To assess the dose response of ANGPTL3 RNAi agent AD05488, six- to eight-week-old female C57bl/6 mice were used. Pre-dose serum samples were taken at day −1 after a four hour fast. At day 1, each mouse was given a single subcutaneous administration of 200 μl containing the respective mg/kg dose of an ANGPTL3 RNAi agent in D5W (dextrose in 5% water), or control (D5W) with no RNAi agent, according to the dosing groups recited in Table 53:
(§2) The RNAi agent tested (AD05488) included a modified sequence and an N-acetyl-galactosamine-containing targeting ligand conjugated to the 5′ terminal end of the sense strand. (See Tables 3, 4, and 5 for modified sequences and targeting ligand structures). The injections were performed between the skin and muscle (i.e. subcutaneous injections) into the loose skin over the neck and shoulder area. Four (4) mice in each group were tested (n=4). Serum was collected on days 8, 15, 22, and 29. Mice were fasted for four hours prior to each collection. ANGPTL3 protein levels in serum were measured by ELISA assay (R&D Systems), according to the manufacturer's recommendations. Triglycerides, total cholesterol, high-density lipoprotein (HDL), and low-density lipoprotein (LDL) in serum were measured on a Cobas® Integra 400 (Roche Diagnostics), according to the manufacturer's recommendations.
(§3) The ANGPTL3 protein levels, triglyceride levels, total cholesterol levels, HDL levels, and LDL levels for each animal were normalized. For normalization, the level of ANGPTL3 protein, triglyceride, HDL, and total cholesterol, respectively, for each animal at a time point, was divided by the pre-treatment level of expression in that animal (in this case at day −1) to determine the ratio of expression “normalized to pre-treatment.” Expression at a specific time point was then normalized to the D5W control group by dividing the “normalized to pre-treatment” ratio for an individual animal by the mean “normalized to pretreatment” ratio of all mice in the D5W control group.

[2] = tested on: ANGPTL3 gene; experiment: Example 13: serum total cholesterol in HFCS diet-fed Rhesus monkeys; assay type: in vivo; settings: for Avg Chol (Cholesterol) Normalized to Pre-Treatment (Fasted): 4.0 mg/kg sc on day 1 and day 29
Procedure: ANGPTL3 RNAi agent AD05488 was further evaluated in high-fructose corn syrup (HFCS) diet-fed Rhesus monkeys. Rhesus monkeys were placed on an HFCS diet 37 days prior to dosing. These animals were known to develop increased plasma triglycerides greater than 180 mg/dL on the HFCS diet. On day 1 and again on day 29, four (4) Rhesus monkeys were administered a subcutaneous injection containing 4.0 mg/kg of ANGPTL3 RNAi agent AD05488 formulated in saline (n=4). Two additional Rhesus monkeys were administered normal saline control.
Fasted blood samples were drawn for analysis, and serum samples were analyzed on days-8 (predose), 8, 15, 21, 29, and 36. ANGPTL3 expression levels, triglycerides, total cholesterol, high-density lipoprotein (HDL), and low-density lipoprotein (LDL) in serum were measured on a Cobas® Integra 400 (Roche Diagnostics), according to the manufacturer's recommendations.
The ANGPTL3 protein levels, triglyceride levels, total cholesterol levels, HDL levels, and LDL levels for each animal were normalized. For normalization, the level of ANGPTL3 protein, triglyceride, HDL, and total cholesterol, respectively, for each animal at a time point, was divided by the pre-treatment level of expression in that animal (in this case at day −8) to determine the ratio of expression “normalized to pre-treatment.”

[3] = tested on: ANGPTL3 protein; experiment: Example 11: dose response, serum ANGPTL3 protein by ELISA in mice; assay type: in vivo, C57bl/6 mice
Procedure: as §1, §2, §3

[4] = 0.05 mg/kg single sc day 1, Day 8
[5] = 0.05 mg/kg single sc day 1, Day 15
[6] = 0.05 mg/kg single sc day 1, Day 22
[7] = 0.05 mg/kg single sc day 1, Day 29
[8] = 0.1 mg/kg single sc day 1, Day 8
[9] = 0.1 mg/kg single sc day 1, Day 15
[10] = 0.1 mg/kg single sc day 1, Day 22
[11] = 0.1 mg/kg single sc day 1, Day 29
[12] = 0.5 mg/kg single sc day 1, Day 8
[13] = 0.5 mg/kg single sc day 1, Day 15
[14] = 0.5 mg/kg single sc day 1, Day 22
[15] = 0.5 mg/kg single sc day 1, Day 29
[16] = 1.0 mg/kg single sc day 1, Day 8
[17] = 1.0 mg/kg single sc day 1, Day 15
[18] = 1.0 mg/kg single sc day 1, Day 22
[19] = 1.0 mg/kg single sc day 1, Day 29
[20] = 2.5 mg/kg single sc day 1, Day 8
[21] = 2.5 mg/kg single sc day 1, Day 15
[22] = 2.5 mg/kg single sc day 1, Day 22
[23] = 2.5 mg/kg single sc day 1, Day 29
[24] = 5.0 mg/kg single sc day 1, Day 8
[25] = 5.0 mg/kg single sc day 1, Day 15
[26] = 5.0 mg/kg single sc day 1, Day 22
[27] = 5.0 mg/kg single sc day 1, Day 29

AD05488: RNAi agent duplex: antisense AM07235-AS, sense AM07234-SS (antisense mU*fA*mC*fUmGfAmUfCmAfAmAfUmAfUmGfUmUfGmAfG*mC; sense {NAG37}*[invAb]*mGmCmUmCmAmAmCmAfUfAfUmUmUmGmAmUmCmAmGmUmA*[invAb])
Avg HDL Normalized to Pre-Treatment and Control [1, 4]: 0.851 | Avg HDL Normalized to Pre-Treatment and Control [1, 5]: 1.052 | Avg HDL Normalized to Pre-Treatment and Control [1, 6]: 0.982 | Avg HDL Normalized to Pre-Treatment and Control [1, 7]: 0.894 | Avg HDL Normalized to Pre-Treatment and Control [1, 8]: 0.807 | Avg HDL Normalized to Pre-Treatment and Control [1, 9]: 0.950 | Avg HDL Normalized to Pre-Treatment and Control [1, 10]: 0.806 | Avg HDL Normalized to Pre-Treatment and Control [1, 11]: 0.910 | Avg HDL Normalized to Pre-Treatment and Control [1, 12]: 0.727 | Avg HDL Normalized to Pre-Treatment and Control [1, 13]: 0.876 | Avg HDL Normalized to Pre-Treatment and Control [1, 14]: 0.906 | Avg HDL Normalized to Pre-Treatment and Control [1, 15]: 0.897 | Avg HDL Normalized to Pre-Treatment and Control [1, 16]: 0.575 | Avg HDL Normalized to Pre-Treatment and Control [1, 17]: 0.785 | Avg HDL Normalized to Pre-Treatment and Control [1, 18]: 0.839 | Avg HDL Normalized to Pre-Treatment and Control [1, 19]: 0.888 | Avg HDL Normalized to Pre-Treatment and Control [1, 20]: 0.618 | Avg HDL Normalized to Pre-Treatment and Control [1, 21]: 0.787 | Avg HDL Normalized to Pre-Treatment and Control [1, 22]: 0.782 | Avg HDL Normalized to Pre-Treatment and Control [1, 23]: 0.701 | Avg HDL Normalized to Pre-Treatment and Control [1, 24]: 0.534 | Avg HDL Normalized to Pre-Treatment and Control [1, 25]: 0.717 | Avg HDL Normalized to Pre-Treatment and Control [1, 26]: 0.760 | Avg HDL Normalized to Pre-Treatment and Control [1, 27]: 0.759 | reductions in total cholesterol levels ([2]; 4.0 mg/kg on days 1 and 29, HFCS diet-fed Rhesus monkeys): reductions | Avg Chol (Cholesterol) Normalized to Pre-Treatment (Fasted) ([2]; Day 8): 0.734 | Avg Chol (Cholesterol) Normalized to Pre-Treatment (Fasted) ([2]; Day 15): 0.641 | Avg Chol (Cholesterol) Normalized to Pre-Treatment (Fasted) ([2]; Day 21): 0.579 | Avg Chol (Cholesterol) Normalized to Pre-Treatment (Fasted) ([2]; Day 29): 0.549 | Avg Chol (Cholesterol) Normalized to Pre-Treatment (Fasted) ([2]; Day 36): 0.459 | Avg ANGPTL3 Protein Normalized to Pre-Treatment and Control [3, 4]: 0.788 | Avg ANGPTL3 Protein Normalized to Pre-Treatment and Control [3, 5]: 0.929 | Avg ANGPTL3 Protein Normalized to Pre-Treatment and Control [3, 6]: 1.106 | Avg ANGPTL3 Protein Normalized to Pre-Treatment and Control [3, 7]: 0.990 | Avg ANGPTL3 Protein Normalized to Pre-Treatment and Control [3, 8]: 0.511 | Avg ANGPTL3 Protein Normalized to Pre-Treatment and Control [3, 9]: 0.757 | Avg ANGPTL3 Protein Normalized to Pre-Treatment and Control [3, 10]: 0.720 | Avg ANGPTL3 Protein Normalized to Pre-Treatment and Control [3, 11]: 0.734 | Avg ANGPTL3 Protein Normalized to Pre-Treatment and Control [3, 12]: 0.207 | Avg ANGPTL3 Protein Normalized to Pre-Treatment and Control [3, 13]: 0.261 | Avg ANGPTL3 Protein Normalized to Pre-Treatment and Control [3, 14]: 0.310 | Avg ANGPTL3 Protein Normalized to Pre-Treatment and Control [3, 15]: 0.349 | Avg ANGPTL3 Protein Normalized to Pre-Treatment and Control [3, 16]: 0.116 | Avg ANGPTL3 Protein Normalized to Pre-Treatment and Control [3, 17]: 0.141 | Avg ANGPTL3 Protein Normalized to Pre-Treatment and Control [3, 18]: 0.171 | Avg ANGPTL3 Protein Normalized to Pre-Treatment and Control [3, 19]: 0.199 | Avg ANGPTL3 Protein Normalized to Pre-Treatment and Control [3, 20]: 0.064 | Avg ANGPTL3 Protein Normalized to Pre-Treatment and Control [3, 21]: 0.047 | Avg ANGPTL3 Protein Normalized to Pre-Treatment and Control [3, 22]: 0.056 | Avg ANGPTL3 Protein Normalized to Pre-Treatment and Control [3, 23]: 0.063 | Avg ANGPTL3 Protein Normalized to Pre-Treatment and Control [3, 24]: 0.018 | Avg ANGPTL3 Protein Normalized to Pre-Treatment and Control [3, 25]: 0.019 | Avg ANGPTL3 Protein Normalized to Pre-Treatment and Control [3, 26]: 0.029 | Avg ANGPTL3 Protein Normalized to Pre-Treatment and Control [3, 27]: 0.031 | reduction in ANGPTL3 protein ([3]; dose response, single subcutaneous dose, C57bl/6 mice): reduction
